Data reported in EP4772497A1, “POLYMORPHS OF NITROGEN-CONTAINING HETEROCYCLIC COMPOUNDS, AND USES THEREOF” (BNH Research Co., Ltd., priority 2023, dated 2025).
In brackets after ≈: the same amount, converted by molar mass.

Tests used:
[1] = Solubility assay of crystalline form A in 17 solvents; assay type: physicochemical; conditions: thermodynamic from solid
Description: For solubility assay, about 5 mg or about 10 mg of crystalline form A was weighed into a 2 mL glass vial. A 20 µL aliquot of each of the 17 solvents listed in Table 8 was added to the vial to dissolve the drug substance. For about 5 mg of crystalline form A, the drug substance was dissolved at 25°C; and for about 10 mg of crystalline form A, the drug substance was dissolved at 50°C. To aid dissolution, vortexing and sonication were applied to facilitate dissolution, and the maximum volume of each solvent added was 1 mL.

[2] = Parallel artificial membrane permeability assay (PAMPA) for BBB permeability; assay type: in vitro ADME; conditions: PAMPA, pH 7.2, BBB lipid membrane, PBS (pH 7.2); read-out: PAMPA Pe
Description: • PAMPA: PMBBB-096 Kit • Assay format: 96-well plate • Reference substance: Imipramine (H) (10 µM) • Test substance concentration: 10 µM • Number of replicates: 3 • Reaction time: 6 hours at 25°C on a shaker (75 - 80 rpm) • Analytical method: LC-MS/MS • Data processing: Pe (cm/s)
The test compounds (crystalline forms A and C) were dissolved in DMSO at a concentration of 10 mM […] to prepare standard solutions. Next, dried brain lipids were resuspended in 600 µL dodecane to prepare a BBB lipid solution in dodecane. Pipetting up and down was repeated (~100 times) until all dried brain lipids were dissolved (vortexing or sonication may be helpful). A 10 µM reaction solution in PBS containing 5% DMSO was prepared.
The experiments were conducted in a 96-well plate using the prepared reaction solution of each test compound and the BBB lipid solution according to the following assay procedure. • 1. 500 µL of a 500 µM test compound solution (prepared by mixing 25 µL of a 10 mM test compound + 475 µL of PBS (pH 7.2) in DMSO) was prepared in a separate centrifuge tube. When a permeability control was used, it was diluted to 500 µM using PBS (prepared by mixing 25 µL of permeability control + 475 µL of PBS (pH 7.2)). • 2. For each test compound and control, a 200 µM equilibrium standard was prepared in a separate tube (by mixing 80 µL of 500 µM test compound or control with 120 µL of PBS (pH 7.2)). […] The absorbance spectrum from 200 nm to 500 nm was measured at 10 nm intervals to determine the peak absorbance of the test compounds. […] The peak absorbances of the high-permeability and low-permeability controls are 250 nm and 270 nm, respectively.
For the compounds and permeability controls, the permeability rate (Pe) was determined using the following equation: Pe = C × −ln(1−(ODA)/(ODE))cm/s [formula]
Here, ODA is the absorbance of the acceptor solution minus the blank, and ODE is the absorbance of the equilibrium standard minus the blank. For each absorbance value, the peak absorbance determined for each test was used. […]

## C[C@@H]1CC[C@H](C(=O)O)CN1C(=O)Cc1ccc(F)cc1Cl [Crystalline form A, (3S,6R)-1-(2-(2-chloro-4-fluorophenyl)acetyl)-6-methylpiperidine-3-carboxylic acid]
[1]; organic solvent or mixture, 1,4-Dioxane, 25°C
  solubility: > 250 mg/mL
[1]; organic solvent or mixture, 1,4-Dioxane, 50°C
  solubility: > 500 mg/mL
[1]; organic solvent or mixture, 2-MeTHF, 25°C
  solubility: > 250 mg/mL
[1]; organic solvent or mixture, 2-MeTHF, 50°C
  solubility: > 500 mg/mL
[1]; organic solvent or mixture, Acetone, 25°C
  solubility: 125 to 250 mg/mL (≈ 398 to 797 mM)
[1]; organic solvent or mixture, Acetone, 50°C
  solubility: > 500 mg/mL
[1]; organic solvent or mixture, Acetonitrile, 25°C
  solubility: 41 to 50 mg/mL (≈ 131 to 159 mM)
[1]; organic solvent or mixture, Acetonitrile, 50°C
  solubility: > 500 mg/mL
[1]; organic solvent or mixture, DMF, 25°C
  solubility: > 250 mg/mL
[1]; organic solvent or mixture, DMF, 50°C
  solubility: > 500 mg/mL
[1]; organic solvent or mixture, DMSO, 25°C
  solubility: > 250 mg/mL
[1]; organic solvent or mixture, DMSO, 50°C
  solubility: > 500 mg/mL
[1]; organic solvent or mixture, Dichloromethane, 25°C
  solubility: > 250 mg/mL
[1]; organic solvent or mixture, Dichloromethane, 50°C
  solubility: > 500 mg/mL
[1]; organic solvent or mixture, Ethanol, 25°C
  solubility: 125 to 250 mg/mL (≈ 398 to 797 mM)
[1]; organic solvent or mixture, Ethanol, 50°C
  solubility: > 500 mg/mL
[1]; organic solvent or mixture, Ethyl acetate, 25°C
  solubility: 41 to 50 mg/mL (≈ 131 to 159 mM)
[1]; organic solvent or mixture, Ethyl acetate, 50°C
  solubility: 250 to 500 mg/mL (≈ 797 to 1590 mM)
[1]; organic solvent or mixture, Heptane, 25°C
  solubility: < 5 mg/mL
[1]; organic solvent or mixture, Heptane, 50°C
  solubility: < 10 mg/mL
[1]; organic solvent or mixture, Isopropyl acetate, 25°C
  solubility: 63 to 83 mg/mL (≈ 201 to 265 mM)
[1]; organic solvent or mixture, Isopropyl acetate, 50°C
  solubility: 125 to 167 mg/mL (≈ 398 to 532 mM)
[1]; organic solvent or mixture, MTBE, 25°C
  solubility: 16 to 20 mg/mL (≈ 51 to 63.7 mM)
[1]; organic solvent or mixture, MTBE, 50°C
  solubility: 33 to 50 mg/mL (≈ 105 to 159 mM)
[1]; organic solvent or mixture, Methanol, 25°C
  solubility: > 250 mg/mL
[1]; organic solvent or mixture, Methanol, 50°C
  solubility: > 500 mg/mL
[1]; organic solvent or mixture, Methyl ethyl ketone, 25°C
  solubility: 83 to 125 mg/mL (≈ 265 to 398 mM)
[1]; organic solvent or mixture, Methyl ethyl ketone, 50°C
  solubility: 250 to 500 mg/mL (≈ 797 to 1590 mM)
[1]; organic solvent or mixture, Tetrahydrofuran, 25°C
  solubility: > 250 mg/mL
[1]; organic solvent or mixture, Tetrahydrofuran, 50°C
  solubility: > 500 mg/mL
[1]; organic solvent or mixture, Toluene, 25°C
  solubility: 17 to 25 mg/mL (≈ 54.2 to 79.7 mM)
[1]; organic solvent or mixture, Toluene, 50°C
  solubility: 50 to 100 mg/mL (≈ 159 to 319 mM)
[1]; Water, 25°C
  solubility: < 5 mg/mL
[1]; Water, 50°C
  solubility: < 10 mg/mL
[2]
  Papp at 6 h, 10 µM: 0.00925 ×10⁻⁶ cm/s
